This note sets out measurements from patent publication US11760733B2, “Small molecule regulators of mitochondrial fusion and methods of use thereof” (Washington University, priority 2017, dated 2023).

SMILES strings stand for the structures. “Also recorded” adds a separate entry of the source.

The test system of one series is Mfn2 null MEFs. Nature of the series: Mitochondrial elongation (aspect ratio) fusogenicity assay. Format: cell-based, mouse.
Conditions: not given
The source says:
A cultured murine embryonic fibroblast assay system was used in which mitochondrial elongation (an increase in aspect ratio) reflects enhanced mitochondrial fusion.
A pharmacophore model was generated based on the interactions of HR1 and HR2 domains in the calculated structural model of Mfn2 in the closed conformation. The key features included hydrophobic interactions involving Mfn2 HR1: Val372 and Met376, and aromatic interactions and hydrogen bonding involving Mfn2 HR1 His380. […] A library comprising ˜14 million commercially available compounds was prepared in silico and evaluated using PHASE to fit these criteria. Top ranked hits were clustered, and filtered based on pharmacological properties using Qikprop. The top 55 (see TABLE 4) commercially available small molecules conforming to the model were selected for functional screening and purchased in 1 mg aliquots. Each compound was dissolved to a stock concentration of 10 mM in DMSO and applied to Mfn2 null MEFs overnight at a final concentration of 1 mM. […] Images were acquired by confocal microscopy. Each compound was scored for fusogenicity (see e.g., FIG. 24A) and % cell death (see e.g., FIG. 24B).
Wild-type MEFs were prepared from E10.5 c57/bl6 mouse embryos. […] MEFs were subcultured in DMEM (4.5 g/L glucose) plus 10% fetal bovine serum, 1× nonessential amino acids, 2 mM L-glutamine, 100U/ml penicillin and 100 ug/ml streptomycin.
Cells were excited with 408 nm (Hoechst), […] (MitoTracker Green and Calcein AM, GFP), or 637 nm (TMRE, MitoTracker Orange, Ethidium homodimer-1, and AF594-Dextran) laser diodes. For mitochondrial elongation studies mitochondrial aspect ratio (long axis/short axis) was calculated using automated edge detection and Image J software. Mitochondrial depolarization was calculated as % of green mitochondria visualized on MitoTracker Green and TMRE merged images, expressed as green/(green+yellow mitochondria)×100.
For `O=C1CC(SCCc2nc3ccccc3[nH]2)C(=O)N1c1cccc(F)c1` (centres unmarked) [D9], the “fusogenic activity (mitochondrial elongation), in words” value was “no true fusogenic activity; also recorded: failed validation in the secondary screen”.

The series is the same for the next values; noted with them: Mus musculus; read-out: % long compare to B.
In the case of `CCn1c(SCC(=O)Nc2sc3c(c2C(N)=O)CCC3)nnc1-c1ccc(Cl)cc1` [1-A1, 2-(2-{[5-(4-chlorophenyl)-4-ethyl-4H-1,2,4-triazol-3-yl]sulfanyl}acetamido)-4H,5H,6H-cyclopenta[b]thiophene-3-carboxamide], the Emax was 11%.

As to `NC(=O)c1c(NC(=O)CSc2nnc(-c3ccccc3F)n2C2CC2)sc2c1CCC2` [1-A2, 2-(2-{[4-cyclopropyl-5-(2-fluorophenyl)-4H-1,2,4-triazol-3-yl]sulfanyl}acetamido)-4H,5H,6H-cyclopenta[b]thiophene-3-carboxamide], the Emax is -23%. With `CCn1c(SC(C)C(=O)Nc2sc3c(c2C(N)=O)CCC3)nnc1-c1ccoc1C` (centres unmarked) [1-A6, 2-(2-{[4-ethyl-5-(2-methylfuran-3-yl)-4H-1,2,4-triazol-3-yl]sulfanyl}propanamido)-4H,5H,6H-cyclopenta[b]thiophene-3-carboxamide], the Emax is -31%. As to `COCCn1c(SC(C)C(=O)Nc2sc3c(c2C(N)=O)CCC3)nnc1-c1ccncc1` (centres unmarked) [1-B12, 2-(2-{[4-(2-methoxyethyl)-5-(pyridin-4-yl)-4H-1,2,4-triazol-3-yl]sulfanyl}propanamido)-4H,5H,6H-cyclopenta[b]thiophene-3-carboxamide], the Emax is -1%. The same measure, in the same setting: the figure for `Cc1ccc(-n2c(C)nnc2SCC(=O)Nc2sc3c(c2C(N)=O)CCCC3)cc1` [1-D3, 2-(2-{[5-methyl-4-(4-methylphenyl)-4H-1,2,4-triazol-3-yl]sulfanyl}acetamido)-4,5,6,7-tetrahydro-1-benzothiophene-3-carboxamide] is 1%; for `CC1CCc2c(sc(NC(=O)CSc3nnc(C4CC4)n3-c3ccccc3)c2C(N)=O)C1` (centres unmarked) [1-D5, 2-{2-[(5-cyclopropyl-4-phenyl-4H-1,2,4-triazol-3-yl)sulfanyl]acetamido}-6-methyl-4,5,6,7-tetrahydro-1-benzothiophene-3-carboxamide] it is 2%. In the case of `Cc1occc1-c1nnc(SCC(=O)Nc2sc3c(c2C(N)=O)CCC3)n1-c1ccccc1` [1-D10, 2-(2-{[5-(2-methylfuran-3-yl)-4-phenyl-4H-1,2,4-triazol-3-yl]sulfanyl}acetamido)-4H,5H,6H-cyclopenta[b]thiophene-3-carboxamide], the Emax is 17%. For the compound `Cc1ccccc1-n1c(SCC(=O)Nc2sc3c(c2C(N)=O)CCCC3)nnc1-c1cccnc1` [1-E12, 2-(2-{[4-(2-methylphenyl)-5-(pyridin-3-yl)-4H-1,2,4-triazol-3-yl]sulfanyl}acetamido)-4,5,6,7-tetrahydro-1-benzothiophene-3-carboxamide], the Emax is -3%. As for `NC(=O)c1c(NC(=O)CSc2nnc(-c3cccnc3)n2-c2ccccc2)sc2c1CCCC2` [1-G3, 2-(2-{[4-phenyl-5-(pyridin-3-yl)-4H-1,2,4-triazol-3-yl]sulfanyl}acetamido)-4,5,6,7-tetrahydro-1-benzothiophene-3-carboxamide], the Emax worked out at 4%. As for `NC(=O)c1c(NC(=O)CSc2nnc3n2CCCCC3)sc2c1CCCC2` [1-G10, 2-(2-{5H,6H,7H,8H,9H-[1,2,4]triazolo[4,3-a]azepin-3-ylsulfanyl}acetamido)-4,5,6,7-tetrahydro-1-benzothiophene-3-carboxamide], the Emax was -3%. For the compound `Cc1ccccc1-n1c(SCC(=O)Nc2sc3c(c2C(N)=O)CCC3)nnc1-c1ccncc1` [1-H1, 2-(2-{[4-(2-methylphenyl)-5-(pyridin-4-yl)-4H-1,2,4-triazol-3-yl]sulfanyl}acetamido)-4H,5H,6H-cyclopenta[b]thiophene-3-carboxamide], the Emax is -3%.

Regarding `Cn1c(SCC(=O)Nc2sc3c(c2C(N)=O)CCC3)nnc1-c1ccc(Cl)cc1` [1-H2, 2-(2-{[5-(4-chlorophenyl)-4-methyl-4H-1,2,4-triazol-3-yl]sulfanyl}acetamido)-4H,5H,6H-cyclopenta[b]thiophene-3-carboxamide], the Emax is 0%. In the case of `NC(=O)c1c(NC(=O)CSc2nnc(C3CC3)n2C2CC2)sc2c1CCCC2` [2-A2, 2-{2-[(dicyclopropyl-4H-1,2,4-triazol-3-yl)sulfanyl]acetamido}-4,5,6,7-tetrahydro-1-benzothiophene-3-carboxamide], the Emax came out at 4%.

Consider `CC1CCCCC1NC(=O)NCCSCc1ccccc1` (centres unmarked) [A10, 1-[2-(benzylsulfanyl)ethyl]-3-(2-methylcyclohexyl)urea], for which the Emax was found to be 72%.

Regarding `O=C(Nc1cc(CSCCOC(=O)C2C3CCCCC32)ccn1)C1C2CCCCC21` (centres unmarked) [A12, 2-{[(2-{bicyclo[4.1.0]heptane-7-amido}pyridin-4-yl)methyl]sulfanyl}ethyl bicyclo[4.1.0]heptane-7-carboxylate], the Emax stood at 31%.

For `CC(c1cccc([N+](=O)[O-])c1)N(C)CC(=O)NCCSCc1ccccc1C#N` (centres unmarked) [B05, N-(2-{[(2-cyanophenyl)methyl]sulfanyl}ethyl)-2-{methyl[1-(3-nitrophenyl)ethyl]amino}acetamide], the Emax is 15%. In the case of `Cc1cccc(NC(=O)CSCC(=O)N(Cc2ccc(N(C)C)cc2)C(C)C)c1` [B12, N-{[4-(dimethylamino)phenyl]methyl}-2-({[(3-methyl-phenyl)carbamoyl]methyl}sulfanyl)-N-(propan-2-yl)acetamide], the Emax came out at 26%.

Staying with this series, now noted: rank by aspect ratio among 44 soluble compounds.
For the compound `CC(c1cccc([N+](=O)[O-])c1)N(C)CC(=O)NCCSCc1ccccc1C#N` (centres unmarked) [drawing 250], the “Fusogenicity Rank” value worked out at 16.

Test system in another series: not listed separately
Nature of the series: Solubility of library compounds in DMSO stock. The class given is physicochemical. The following applies: stock concentration of 10 mM in DMSO. Here is the method: A pharmacophore model was generated based on the interactions of HR1 and HR2 domains in the calculated structural model of Mfn2 in the closed conformation. The key features included hydrophobic interactions involving Mfn2 HR1: Val372 and Met376, and aromatic interactions and hydrogen bonding involving Mfn2 HR1 His380. […] A library comprising ˜14 million commercially available compounds was prepared in silico and evaluated using PHASE to fit these criteria. Top ranked hits were clustered, and filtered based on pharmacological properties using Qikprop. The top 55 (see TABLE 4) commercially available small molecules conforming to the model were selected for functional screening and purchased in 1 mg aliquots. Each compound was dissolved to a stock concentration of 10 mM in DMSO and applied to Mfn2 null MEFs overnight at a final concentration of […]. Eleven of the library members were not soluble in DMSO at the required concentration. The 44 fully soluble compounds were screened in groups of 6 at a time for cytotoxicity (calcein AM/ethidium homodimer staining; ThermoFisher LIVE/DEAD Assay cat # L3224) and fusogenicity (increase in mitochondrial aspect ratio; MitoTracker Orange staining) compared to cells treated overnight with […] of the parent HR1 367-384 mitofusin agonist peptide (positive control) or vehicle (DMSO). Images were acquired by confocal microscopy. Each compound was scored for fusogenicity (see e.g., FIG. 24A) and % cell death (see e.g., FIG. 24B). Pharmacophore model fit generally correlated with actual fusogenic activity (Pearson correlation coefficient r=0.214; see e.g., FIG. 24A, inset; TABLE 4).
For the compound `CC(=O)NC12CC3CC(C1)CC(C(=O)NCCSCc1ccc(C)cc1)(C3)C2` [3-acetamido-N-(2-{[(4-methylphenyl)methyl]sulfanyl}ethyl)adamantane-1-carboxamide], the “Solubility in DMSO” value is reported as “Insoluble”. `Cc1ccc(C(=O)C(C)Sc2nnc3c(=O)n(-c4ccccc4)ccn23)cc1C` (centres unmarked) [3-{[1-(3,4-dimethylphenyl)-1-oxopropan-2-yl]sulfanyl}-7-phenyl-7H,8H-[1,2,4]triazolo[4,3-a]pyrazin-8-one]: the “Solubility in DMSO” value is reported as “Insoluble”. As for `Cc1ccc(C(=O)C(C)Sc2nnc3c(=O)n(-c4ccc(Br)cc4)ccn23)cc1C` (centres unmarked) [7-(4-bromophenyl)-3-{[1-(3,4-dimethylphenyl)-1-oxopropan-2-yl]sulfanyl}-7H,8H-[1,2,4]triazolo[4,3-a]pyrazin-8-one], the “Solubility in DMSO” value is “Insoluble”. The same measure, in the same setting: the entry for `COc1cc(Cl)c(C)cc1N1C(=O)[C@@H]2C[C@H]1CN2Cc1cccn1-c1ncccn1` [(1S,4S)-2-(4-chloro-2-methoxy-5-methylphenyl)-5-{[1-(pyrimidin-2-yl)-1H-pyrrol-2-yl]methyl}-2,5-diazabicyclo[2.2.1]heptan-3-one] is “Insoluble”; for `Cc1ccc(CSCCNC(=O)C2CCN(c3ccc4nnc(C(F)(F)F)n4n3)CC2)cc1` [N-(2-{[(4-methylphenyl)methyl]sulfanyl}ethyl)-1-[3-(trifluoromethyl)-[1,2,4]triazolo[4,3-b]pyridazin-6-yl]piperidine-4-carboxamide] it is “Insoluble”.

Take `CC(Sc1nc(C2CC2)nc2c1c(=O)[nH]c(=O)n2C1CC1)C(=O)NCC1CCCCC1` (centres unmarked) [N-(cyclohexylmethyl)-2-({2,8-dicyclopropyl-5,7-dioxo-5H,6H,7H,8H-pyrimido[4,5-d][1,3]diazin-4-yl}sulfanyl)propanamide]: the “Solubility in DMSO” value was “Insoluble”. In the case of `Cc1ccc(SC(C)C(=O)Nc2ccc(NS(=O)(=O)c3ccc4c(c3)OCCCO4)cc2)cc1` (centres unmarked) [N-[4-(3,4-dihydro-2H-1,5-benzodioxepine-7-sulfonamido)phenyl]-2-[(4-methylphenyl)sulfanyl]propanamide], the “Solubility in DMSO” value is “Insoluble”.
